Measured values published in patent US10940475B2, “Gradient-on-a-chip” (Purdue Research Foundation, priority 2017, dated 2021).
Where two headings read alike, the source gives them in different places.

Assays:
[1] = system: S2 cells; conditions: four hours
Method: (§1) A NE-4000X dual syringe pump (New era pump systems Inc., Farmingdale, N.Y.) was exposed to UV overnight before the day of experiments. The flow rate was adjusted to 0.1 ml/h, and using a 60 ml syringe a continuous inflow of medium and H2O2 (250 μM) through the inlets was maintained. The second pump was connected to the outlet to remove the medium at 0.2 ml/h to avoid overflow of liquids in the cell culture aperture of the device. The flow rate for the outlet pump was twice that of the incoming flow rate to accommodate for the use of two inlets. The paper strip with cells in 2D or 3D culture was placed in the cell culture slot of the device and exposed to the ROS gradient for four hours.

[2] = system: S2 cells; conditions: for cells with γ-H2Ax staining: low ROS concentration tier, gradient from 250 μM H2O2, four hours
Method: Human mammary epithelial non-neoplastic S1 cells^17 [used between passages 52 to 60], preinvasive S2 cells^18 [used between passages 218+2 and 218+10] and invasive T4-2 cells^19 [used between passages 28+4 and 28+10] that belong to the HMT-3522 breast cancer progression series, were cultured in H-14 medium, i.e., Dulbecco modified Eagle medium (DMEM) (Invitrogen Inc., Carlsbad, Calif.) supplemented with additives, prolactin (30.3 IU/ml; Sigma-Aldrich, St Louis, Mo.), insulin (100 μg/ml; Sigma-Aldrich), hydrocortisone (0.5 mg/ml; BD Biosciences, San Jose, Calif.), beta-estradiol (2.67×10^−5 μg/ml; Sigma-Aldrich), selenium (2.6 μg/ml; BD Biosciences) and transferrin (20 mg/ml; Sigma-Aldrich)^20. The culture medium also included epithelial growth factor (EGF) (20 mg/ml; BD Biosciences) until day 6 of culture, after which EGF was omitted from the culture medium to ensure proliferation arrest in 3D culture. Cell culture was performed at 37° C. in a humidified environment with 5% carbon dioxide and the culture medium was changed every three days for the S1 cells and every two days for S2 and T4-2 cells. Seeding densities in 2D culture were 22600 cells/cm^2 for S1 cells and 11900 cells/cm^2 for S2 and T4-2 cells. In 3D culture seeding densities were 86300 cells/cm^2 for S1 cells in the presence of Engelbreth-Holm-S warm (EHS) mouse derived Matrigel (Corning Life Sciences, Tewksbury, Ma.) or within collagen-1 rich Collymer matrix (GeniPhys™, Zionsville, Ind.) and 43150 cells/cm^2 for S2 and T4-2 cells. […] Briefly, 42 μl of Matrigel per cm^2 was used for the drip method with cells in 150 μl of medium, dripped on the gel-coated surface, before adding another 150 μl of medium with 10% EHS gel drop-by-drop all over the culture surface five minutes later (in the end seeding involved 3.47×10^4S1 cells/cm^2 per 55 μl of Matrigel; 1.74×10^4S2 or T4-2 cells/cm^2 per 55 μl of Matrigel). Collymers were prepared at different degrees of stiffness based on the formula provided by the manufacturer. S1 cells were cultured in 800 Pa Collymers stiffness, S2 cells were cultured in 800 Pa and 1500 Pa Collymers stiffness and T4-2 cells were cultured in 1500 Collymers stiffness. For the S2 cells, since they are preinvasive and nodules are surrounded by a basement membrane, basement membrane formation inducer laminin 111 (Corning) was mixed at 76 μg/ml final concentration with Collymers. For the Collymers thin-embedded culture, the surface was coated with 14 μl/cm^2 of Collymers of the desired stiffness. Collymers become opaque when they form a gel by incubation five minutes at 37° C. Cells were mixed with Collymers at the following concentrations per surface of culture and Collymers volume units: 4500 cells/cm^2/μl for S1 cells and 2262 cells/cm^2/μl for S2 and T4-2 cells. Following centrifugation at 2950 g for five minutes, the cells needed for each culture surface were put in solution in 5 μl of H-14 medium. Then, the cell suspension was mixed with Collymers (55 μl/cm^2 of culture surface) by gentle pipetting before coating on the cell culture surface, drop-by-drop all over the surface, and spreading with the pipette tip to ensure even distribution over the culture surface. After incubation five minutes at 37° C., 500 μl medium was added on top of the Collymers-embedded cells.
Antibodies used included Anti-rabbit Caspase-3 (Cell Signaling Technologies, Boston, Mass. 1/400 dilution), AOP2 (Abcam, Cambridge, Mass.; 2 μg/ml) and γ-H2AX (Ser139; Millipore, clone JBW301, 3.3 μg/ml). […]

[3] = system: S2 cells; conditions: four hours; remark: listed apart in the source
Method: as §1
Nuclear circularity and nuclear area were measured using the ImageJ software by outlining the nuclear shape based on DAPI staining. The most circular nuclei are given a score of 1 (perfectly round nucleus). Nuclear area was measured in pixels and converted to μm^2 based on the spatial calibration table of ImageJ.

With `OO` [ROS, hydrogen peroxide] the “oxidative DNA damage based on 8-OHdG expression” value ([1]; low ROS concentration tier, 2D and 3D Matrigel culture) was “did no show oxidative DNA damage”, the 8-OHdG levels ([1]; medium and high ROS concentration tiers, 2D cell culture and 3D Matrigel cell culture) was “significant, but similar increase” and the “AOP2 response (nodules stained for AOP2)” value ([1]; regardless of the ROS levels) was roughly 100%. For the same compound, the “γ-H2AX response level of the cell population” value ([2]; high concentration tier, all culture conditions, four hours) was “around 40%”, the “cells with γ-H2Ax staining” value ([2]; 800 Pa Collymers) was 20% and the “cells with γ-H2Ax staining” value ([2]; 1500 Pa Collymers culture) was “less than 5%”. For the same compound, the “cells with γ-H2Ax staining” value ([2]; Matrigel culture) was “less than 5%”, the “cells with γ-H2Ax staining” value ([2]; cells cultured on paper (2D)) was 20% and the nuclear area ([3]; ROS exposure regardless of the cell culture condition) was “increased”. For the same compound, the nuclear circularity ([3]; with increasing ROS concentration tiers, all culture conditions) was “decreased”.
